Experimental findings from patent US20190274974A1, “Treatment of Pain Associated with Trigeminal Neuralgia” (priority 2011, published 2019) are described below.

The subject of experiment [1] is CCI-ION rats. The class given is in vivo, rat. How it is done:
Rats are anaesthetized with sodium pentobarbital (50 mg/kg i.p.). Unilateral CCI-ION is performed under direct visual control using a Zeiss microscope (10-25×) essentially as described by Vos et al (Vos B P, Strassman A M, Maciewicz R J (1994), J. Neurosci. 14: 2708-2723). Briefly, the head is fixed in a Horsley-Clarke stereotaxic frame and a midline scalp incision is made, exposing skull and nasal bone. The edge of the orbit, formed by the maxillary, frontal, lacrimal, and zygomatic bones, is dissected free. The orbital contents are gently deflected to give access to the infraorbital nerve which is dissected free at its most rostral extent in the orbital cavity, just caudal to the infraorbital foramen. Only 5 mm of the nerve can be freed (Vos et al.), providing the space for placement of two chromic catgut (5-0) ligations tied loosely (with about 2 mm spacing) around it. […] Finally, scalp incision is closed using silk sutures (4-0). In sham-operated rats, the ION is exposed using the […] procedure, but is not ligated.
Mechanical sensitivity is determined with a graded series of eleven von Frey filaments (Bioseb, Bordeaux, France). The filaments produce a bending force of 0.07, 0.16, 0.40, 0.60, 1.00, 2.00, 4.00, 6.00, 8.00, 10.00 and 12.00 g, respectively. The stimuli are applied within the ION territory (vibrissae pad) three times at the nerve-injured side and then at the contralateral side for a total of 6 applications of each filament per rat, always beginning with the filament producing the lowest force. The von Frey filaments are applied at least 3 seconds after the rats returned to their initial resting state. For each session, the complete series of von Frey filaments is tested in increasing force order.
The latter responses represent the highest scores in the rank-ordered response scoring system initially described by Vos et al. The minimal force filament causing at least one among these responses (to at least 2 out of the 3 an each side) allows determination of the mechanical response threshold. The 12.00 g filament is the cut-off threshold (no tissue-injury occurs at this pressing force).
For studying the effects of acute treatment with tapentadol in CCI-ION rats, tapentadol (1 or 10 mg/kg i.p.) or its vehicle (0.9% NaCl i. p.) was injected acutely 14 days after surgery. Sham-operated rats were treated in parallel. Pressure threshold values to trigger nocifensive responses to von Frey filaments application onto the plantar surface of ipsilateral hindpaw were determined at various times after acute injection of tapentadol or saline. Cut-off was fixed at 12 g pressure.
For studying the effects of subchronic treatment with tapentadol in CCI-ION rats, starting on day 16 (Time=D) after surgery, they received i.p. injections of tapentadol (10 mg/kg, twice daily, at 10:00 AM and 6:00 PM) or saline (at the same day times as the drug) for four days. On the following day (day 20 after surgery), both tapentadol- and saline-pretreated CCI-SN rats were i.p. injected with Tapentadol (10 mg/kg; Time=0) and then subjected to von Frey filaments' test applied to ipsilateral hindpaw for determination of pressure threshold values at various times thereafter.
14 days after CCI-ION surgery, rats were injected with reboxetine (10 mg/kg i.p.) or its vehicle (0.9% NaCl) followed, 15 min later, by morphine (3 mg/kg s.c.) or its vehicle (0.9% NaCl) and subjected to von Frey filament tests for the following 4 hours. Sham-operated rats were treated in parallel.

Experiment [2] has as its system CCI-SN rats. Put plainly: Randall-Selitto test in CCI-SN rats. The settings on record: 10 mg/kg i.p., acute. The class given is in vivo, rat. As to the method: Rats are anaesthetized with sodium pentobarbital (50 mg/kg i.p.). Unilateral CCI-SN is performed under direct visual control using a Zeiss microscope (10-25×) essentially as described by Bennett and Xie (G. J. Bennett et al., Pain, 33 (1988) 87-107).
Pain is produced by applying increasing pressure (0-450 g/mm^2) with a punch (0.2 mm tip diameter) on the rat's hind paw. The measured value to be determined is the pressure at which either a hindpaw withdrawal response or a vocalisation reaction of the animal occurs.
Tapentadol (10 mg/kg i.p.) or its vehicle (0.9% NaCl i. p.) was injected in CCI-SN rats acutely 14 days after surgery. Pressure threshold values to trigger hindpaw withdrawal (A) or vocalization (B) were determined using the Randall-Selitto test at various times after acute i.p. administration (Time=0) of Tapentadol or saline.
The results are summarized and depicted in FIG. 1 (A and B). Each point is the mean±S.E.M. of 3-4 independent determinations. * P<0.05 compared to pressure threshold values in the same rats before surgery (C on abscissa); Dunnett's test.

Entries after “also recorded” stand apart in the source; their conditions may differ. A value given as a limit tells only on which side of the number the result lay.

As to `CC[C@@H](c1cccc(O)c1)[C@@H](C)CN(C)C` [tapentadol, (−)-(1R,2R)-3-(3-dimethylamino-1-ethyl-2-methyl-propyl)-phenol], in experiment [1] (1 mg/kg i.p., acute), the “time for pressure threshold values to return to saline level after the maximum” value was no more than 45 min and the “time over which the increase in pressure threshold developed” value stood at 45 min. In addition, the “increase in pressure threshold value compared to saline-treated CCI-ION rats” value in experiment [1] (1 mg/kg i.p., acute, two weeks after surgery) is reported as no more than 6 fold. Further, the “anti-allodynic effect after subchronic pretreatment (sensitization/desensitization)” value in experiment [1] (10 mg/kg i.p. twice daily for four days or saline, then 10 mg/kg i.p.) is “had the same characteristics (amplitude, duration); also recorded: neither in CCI-SN rats nor in those with CCI-ION, any sign of sensitization or desensitization”. For the same compound, the “duration of statistically significant anti-allodynic effect” value in experiment [1] (10 mg/kg i.p., acute) was “more than two hours”. The “pressure threshold values relative to those determined prior to injection” value in experiment [1] (10 mg/kg i.p., acute, 30-60 min after injection) is listed as 15-20 fold. Also, in experiment [2] (14 days after surgery), the “duration of the increase in pressure threshold values (hindpaw withdrawal and vocalization)” value was “at least 60 min”. Also, the “pressure threshold values to trigger vocalization relative to untreated healthy rats” value in experiment [2] (first 45 min after administration) was “+20%”. Further, in experiment [2] (first hour after treatment), the “pressure threshold values to cause hindpaw withdrawal compared to intact healthy rats before surgery” value is given as “did not significantly differ from those determined in intact healthy rats”.
